Source: ChEMBL document CHEMBL2429745, “Identification of a new class of glucokinase activators through structure-based design” (J Med Chem, 2013)
The source made the active and inactive calls. The calls are words filed in the database; no cut-off is given here.

Experiments:
Hexokinase-4 = target: T1, Hexokinase-4 (Homo sapiens, UniProt P35557); experiment: Allosteric activation of human glucokinase using glucose as substrate measured every 10 secs for 5 mins
T1 sequence (P35557 whole entry): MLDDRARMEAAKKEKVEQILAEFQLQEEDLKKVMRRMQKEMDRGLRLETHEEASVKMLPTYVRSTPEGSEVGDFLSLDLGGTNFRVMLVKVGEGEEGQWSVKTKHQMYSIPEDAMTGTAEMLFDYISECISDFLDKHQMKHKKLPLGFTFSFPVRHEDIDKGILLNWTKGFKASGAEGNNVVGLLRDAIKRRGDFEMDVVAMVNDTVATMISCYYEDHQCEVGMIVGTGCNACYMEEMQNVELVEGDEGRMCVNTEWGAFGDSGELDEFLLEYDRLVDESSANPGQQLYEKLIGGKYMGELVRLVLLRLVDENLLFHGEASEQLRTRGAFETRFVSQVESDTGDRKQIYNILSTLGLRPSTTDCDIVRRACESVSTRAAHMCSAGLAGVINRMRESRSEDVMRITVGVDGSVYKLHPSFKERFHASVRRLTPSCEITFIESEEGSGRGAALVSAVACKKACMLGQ

[1] = Terminal plasma concentration in C57BL/6J mouse at 50 mg/kg, po administered 30 mins measured after 2.5 hrs; type: ADME, organism-based; set-up: dose 50 mg/kg, route oral; conditions: read-out: Cp(T)
Mus musculus [2] = experiment: Antidiabetic activity in C57BL/6J mouse assessed as reduction of glucose excursion at 50 mg/kg, po administered 30 mins prior to glucose challenge measured over 2 hrs by OGTT; type: functional, organism-based; set-up: dose 50 mg/kg
Rattus norvegicus = experiment: Antidiabetic activity in high fat-fed Zucker diabetic fatty rat assessed as decrease in blood glucose AUC at 50 mg/kg, po after 21 days on high-fat diet measured for 2 hrs post dose by OGTT relative to control; set-up: scale not given: the % may be the effect or the level left
Mus musculus [3] = experiment: Toxicity in C57BL/6J mouse assessed as induction of hypoglycemia at 50 mg/kg, po administered 30 mins prior to glucose challenge measured over 2 hrs; type: organism-based; set-up: dose 50 mg/kg, route oral; conditions: in vivo

| SMILES | EC50 (Hexokinase-4) [nM] | other results |
| --- | --- | --- |
| Cc1csc(Nc2ncccc2OCc2ccccn2)n1 | 12300 |  |
| Cc1csc(Nc2ncccc2OCc2cccnc2)n1 | 7780 |  |
| Cc1csc(Nc2ncc(Br)cc2OCc2ccccc2)n1 | 687 |  |
| CC(C)c1csc(Nc2ncc(SCCn3ccnc3)cc2OCc2ccccc2)n1 |  | concentration at 2.5 h [1]: 4500 ng/mL; Activity (Mus musculus [2]): Active; Activity (Rattus norvegicus): 23%; Activity (Mus musculus [3]): Non-toxic |
| Cc1csc(Nc2ncccc2OCc2cccc3cccnc23)n1 | 1700 |  |
| COc1cccc(COc2cccnc2Nc2nc(C)cs2)c1 | 3220 |  |
| N#C[C@@H]1CCCN1C(=O)CNC12CC3CC(CC(O)(C3)C1)C2 [VILDAGLIPTIN] |  | Activity (Rattus norvegicus): 24% |
| Cc1csc(Nc2ncccc2OCc2cccc(O)c2)n1 | 3440 |  |
| Cc1csc(Nc2ncc(Cl)cc2OCc2ccccc2)n1 | 796 |  |

Further lines, with some results ahead:

| EC50 (Hexokinase-4) [nM] | SMILES | other results |
| --- | --- | --- |
| 562 | CCc1csc(Nc2ncc(Br)cc2OCc2ccccc2)n1 |  |
| 356 | CC(C)Cc1csc(Nc2ncc(Br)cc2OCc2ccccc2)n1 |  |
| 325 | Cc1csc(Nc2ncc(SCCn3ccnc3)cc2OCc2ccccc2)n1 |  |
| 240 | CC(C)c1csc(Nc2ncc(Br)cc2OCc2ccccc2)n1 |  |
| 231 | Cc1csc(Nc2ncc(Sc3ccccn3)cc2OCc2ccccc2)n1 |  |
| 208 | Cc1csc(Nc2ncc(Sc3ccccc3)cc2OCc2ccccc2)n1 |  |
| 77 | Cc1csc(Nc2ncc(SCc3ccccn3)cc2OCc2ccccc2)n1 |  |
| 235 | Cc1csc(Nc2ncc(SCc3ccccc3)cc2OCc2ccccc2)n1 |  |
